This is an account of results in ChEMBL document CHEMBL1629553, “Antimalarial activity of a new stilbene glycoside from Parthenocissus tricuspidata in mice” (Antimicrob Agents Chemother, 2008).

Calls of active or inactive are those of the source. No cut-off for these calls is given here.

Data set [1] deals with Plasmodium berghei. As to the kind of experiment: Antimalarial activity against chloroquine-sensitive Plasmodium berghei ATCC 50175 infected in ICR mouse assessed as chemosuppression of parasitemia at 10 mg/kg/day, po pretreated for 4 days before infection and measured after 72 hrs. The format is functional.
Data set [2] deals with Mus musculus. Put plainly: Toxicity against chloroquine-sensitive Plasmodium berghei ATCC 50175 infected ICR mouse at 5 to 25 mg/kg, po. Set-up: dose 5-25 mg/kg, route oral. The note with it: in vivo. The format is organism-based.
Data set [3] has as its system Plasmodium berghei. As to the kind of experiment: Antimalarial activity against chloroquine-sensitive Plasmodium berghei ATCC 50175 infected in ICR mouse assessed as reduced parasitemia at 25 mg/kg/day, po administered 24 hrs post-treatment measured on day 3. Set-up: scale not given: the % may be the effect or the level left. The format is functional.
In data set [4] the test system is Plasmodium berghei. Put plainly: Antimalarial activity against chloroquine-sensitive Plasmodium berghei ATCC 50175 infected in ICR mouse assessed as parasitemia at 25 mg/kg/day, po pretreated for 4 days before infection and measured after 72 hrs (reference value: 4.6+/-0.21 %). The data set is classed as functional.
The test system of data set [5] is Plasmodium berghei. As to the kind of experiment: Antimalarial activity against chloroquine-sensitive Plasmodium berghei ATCC 50175 infected in ICR mouse assessed as parasitemia at 5 mg/kg/day, po administered 24 hrs post-treatment measured after 4 days (reference value: 56.3+/-0.16 %). The format is functional.
The test system of data set [6] is Plasmodium berghei. Put plainly: Antimalarial activity against chloroquine-sensitive Plasmodium berghei ATCC 50175 infected in ICR mouse assessed as chemosuppression of parasitemia at 25 mg/kg/day, po pretreated for 4 days before infection and measured after 72 hrs. The data set is classed as functional.
For data set [7], the system named is Plasmodium berghei. Put plainly: Antimalarial activity against chloroquine-sensitive Plasmodium berghei ATCC 50175 infected in ICR mouse assessed as parasitemia at 10 mg/kg/day, po administered 24 hrs post-treatment measured after 4 days (reference value: 56.3+/-0.16 %). The data set is classed as functional.
Data set [8] relates to Plasmodium berghei. As to the kind of experiment: Antimalarial activity against chloroquine-sensitive Plasmodium berghei ATCC 50175 infected in ICR mouse assessed as chemosuppression of parasitemia at 25 mg/kg/day, po administered 24 hrs post-treatment measured after 4 days. The format is functional.
The test system of data set [9] is Plasmodium berghei. Put plainly: Antimalarial activity against chloroquine-sensitive Plasmodium berghei ATCC 50175 infected in ICR mouse assessed as reduced parasitemia at 5 mg/kg/day, po administered 24 hrs post-treatment for 4 day measured on day 7. The data set is classed as functional. Set-up: scale not given: the % may be the effect or the level left.
Data set [10] deals with Plasmodium berghei. Put plainly: Antimalarial activity against chloroquine-sensitive Plasmodium berghei ATCC 50175 infected in ICR mouse assessed as reduced parasitemia at 25 mg/kg/day, po administered 24 hrs post-treatment for 4 day measured on day 7. Set-up: scale not given: the % may be the effect or the level left. The format is functional.
For data set [11], the system named is Plasmodium berghei. As to the kind of experiment: Antimalarial activity against chloroquine-sensitive Plasmodium berghei ATCC 50175 infected in ICR mouse assessed as chemosuppression of parasitemia at 5 mg/kg/day, po administered 24 hrs post-treatment measured after 4 days. The format is functional.
The test system of data set [12] is Plasmodium berghei. Put plainly: Antimalarial activity against chloroquine-sensitive Plasmodium berghei ATCC 50175 infected in ICR mouse assessed as parasitemia at 5 mg/kg/day, po pretreated for 4 days before infection and measured after 72 hrs (reference value: 4.6+/-0.21 %). The format is functional.
Data set [13] concerns Plasmodium berghei. Put plainly: Antimalarial activity against chloroquine-sensitive Plasmodium berghei ATCC 50175 infected in ICR mouse assessed as reduced parasitemia at 5 mg/kg/day, po administered 24 hrs post-treatment measured on day 3. The data set is classed as functional. More on the design: scale not given: the % may be the effect or the level left.
Data set [14] relates to Plasmodium berghei. As to the kind of experiment: Antimalarial activity against chloroquine-sensitive Plasmodium berghei ATCC 50175 infected in ICR mouse assessed as reduced parasitemia at 10 mg/kg/day, po administered 24 hrs post-treatment measured on day 3. More on the design: scale not given: the % may be the effect or the level left. The format is functional.
Data set [15] relates to Plasmodium berghei. Put plainly: Antimalarial activity against chloroquine-sensitive Plasmodium berghei ATCC 50175 infected in ICR mouse assessed as parasitemia at 10 mg/kg/day, po pretreated for 4 days before infection and measured after 72 hrs (reference value: 4.6+/-0.21 %). The format is functional.
Data set [16] has as its system Plasmodium berghei. Put plainly: Antimalarial activity against chloroquine-sensitive Plasmodium berghei ATCC 50175 infected in ICR mouse assessed as chemosuppression of parasitemia at 10 mg/kg/day, po administered 24 hrs post-treatment measured after 4 days. The data set is classed as functional.
The subject of data set [17] is Plasmodium berghei. As to the kind of experiment: Antimalarial activity against chloroquine-sensitive Plasmodium berghei ATCC 50175 infected in ICR mouse assessed as chemosuppression of parasitemia at 5 mg/kg/day, po pretreated for 4 days before infection and measured after 72 hrs. The format is functional.
Data set [18] concerns Plasmodium berghei. As to the kind of experiment: Antimalarial activity against chloroquine-sensitive Plasmodium berghei ATCC 50175 infected ICR mouse assessed as increase in mouse survival at 5 to 25 mg/kg/day, po administered 24 hrs post-treatment. The data set is classed as functional.
Data set [19] has as its system Plasmodium berghei. Put plainly: Antimalarial activity against chloroquine-sensitive Plasmodium berghei ATCC 50175 infected in ICR mouse assessed as parasitemia at 25 mg/kg/day, po administered 24 hrs post-treatment measured after 4 days (reference value: 56.3+/-0.16 %). The format is functional.
In data set [20] the test system is Plasmodium berghei. As to the kind of experiment: Antimalarial activity against chloroquine-sensitive Plasmodium berghei ATCC 50175 infected in ICR mouse assessed as reduced parasitemia at 10 mg/kg/day, po administered 24 hrs post-treatment for 4 day measured on day 7. The data set is classed as functional. More on the design: scale not given: the % may be the effect or the level left.

Data set [21] deals with Plasmodium berghei. Put plainly: Antimalarial activity against chloroquine-sensitive Plasmodium berghei ATCC 50175 infected in ICR mouse assessed as parasitemia at 1.2 mg/kg/day, po pretreated for 4 days before infection and measured after 72 hrs (reference value: 4.6+/-0.21 %). The data set is classed as functional.
Data set [22] relates to Plasmodium berghei. Put plainly: Antimalarial activity against chloroquine-sensitive Plasmodium berghei ATCC 50175 infected in ICR mouse assessed as chemosuppression of parasitemia at 1.2 mg/kg/day, po pretreated for 4 days before infection and measured after 72 hrs. The format is functional.
Data set [23] has as its system Plasmodium berghei. Put plainly: Antimalarial activity against chloroquine-sensitive Plasmodium berghei ATCC 50175 infected ICR mouse assessed as survival of mouse at 25 mg/kg/day, po for 4 days measured after 30 days. The data set is classed as functional, organism-based.
Data set [24] relates to Plasmodium berghei. As to the kind of experiment: Antimalarial activity against chloroquine-sensitive Plasmodium berghei ATCC 50175 infected ICR mouse assessed as survival of mouse at 5 mg/kg/day, po for 4 days measured after 30 days. The format is functional, organism-based.
In data set [25] the test system is Plasmodium berghei. Put plainly: Antimalarial activity against chloroquine-sensitive Plasmodium berghei ATCC 50175 infected ICR mouse assessed as survival of mouse at 5 mg/kg/day, po for 4 days measured after 25 days. The format is functional, organism-based.
The subject of data set [26] is Plasmodium berghei. As to the kind of experiment: Antimalarial activity against chloroquine-sensitive Plasmodium berghei ATCC 50175 infected ICR mouse assessed as survival of mouse at 10 mg/kg/day, po for 4 days measured after 27 days. The format is functional, organism-based.

Regarding `OC[C@H]1O[C@@H](OC[C@@H]2O[C@H](Oc3cc(O)cc(/C=C/c4ccc(O)cc4)c3)[C@@H](O)[C@H](O)[C@H]2O)[C@H](O)[C@@H](O)[C@@H]1O`, the Activity in data set [1] is reported as 70.6%; in data set [2] it was “Non-toxic”; in data set [3], 34.37%; in [4], 11.3%; in data set [5] it was 31.3%; in data set [6], 80.1%. The Activity stood at 22.4% in data set [7]; 73.2% in data set [8]; 73.6% in data set [9]; 89.4% in [10]; 44.3% in data set [11]; 23.2% in data set [12]. Moreover, the Activity in data set [13] was found to be 6.25%; in data set [14], 18.75%; in [15] it was 16.5%; in [16], 60.2%; in data set [17], 58.7%; in data set [19] it was 15.2%. In addition, in data set [20], the Activity came out at 86.3%. Further, the Time in [18] was 96 h.

Consider `CCc1nc(N)nc(N)c1-c1ccc(Cl)cc1` [PYRIMETHAMINE], for which the results for the Activity in data set [21] and in [22] were 4.6% and 91.8%, respectively.

Take `CCN(CC)CCCC(C)Nc1ccnc2cc(Cl)ccc12` (stereo not drawn) [CHLOROQUINE]: the results for the Activity in data set [5] and in data set [11] were 6.2% and 89.3%, respectively. In addition, the outcome in data set [23], in data set [24], in [25] and in [26] was Active.
